Source: article PMC10449848, “Structural basis of lipid-droplet localization of 17-beta-hydroxysteroid dehydrogenase 13” (Nature Communications, 2023)
Substitutions are numbered along the chain they refer to. Values joined by “and” are separate entries in the source; they are usually repeats but may differ in a detail not shown here. Equal values may be shown once.

Assays:
human HSD17B13 = molecular target: T1, human HSD17B13 (Homo sapiens, UniProt Q7Z5P4); assay: HSD17B13 purified protein biochemical enzyme activity assay, NAD(P)H-Glo luciferase readout; settings: Leukotriene B4 as substrate, NAD+ cofactor
T1 construct: human HSD17B13 (residues 2-300, NP_835236.2); 10x His (N); TEV protease site (N); made in house; host or cells: Sf9 (baculovirus)
T1 sequence (Q7Z5P4 2-300): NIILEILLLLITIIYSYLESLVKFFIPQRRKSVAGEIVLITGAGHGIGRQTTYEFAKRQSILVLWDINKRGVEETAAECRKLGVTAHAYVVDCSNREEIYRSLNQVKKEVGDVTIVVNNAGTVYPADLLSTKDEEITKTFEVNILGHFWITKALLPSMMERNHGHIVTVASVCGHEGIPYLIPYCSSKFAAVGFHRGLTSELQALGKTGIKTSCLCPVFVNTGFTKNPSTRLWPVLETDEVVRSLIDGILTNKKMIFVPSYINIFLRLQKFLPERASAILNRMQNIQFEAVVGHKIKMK

[1] = molecular target: T2, dog mutant HSD17B13 (G177E/V178G/T205A/I293V) (Canis lupus familiaris, UniProt A0A8C0PP93, G177E/I293V/T205A/V178G); assay: Thermal shift assay (static light scattering, Tagg), dog mutant HSD17B13; assay type: binding; settings: Fig. 6d, 500 μM NAD+
T2 construct: HSD17B13 (AA1-300, XP_038300006.1); made in house; host or cells: Sf9 (baculovirus)
T2 sequence (A0A8C0PP93 1-300 G177E/V178G/T205A/I293V): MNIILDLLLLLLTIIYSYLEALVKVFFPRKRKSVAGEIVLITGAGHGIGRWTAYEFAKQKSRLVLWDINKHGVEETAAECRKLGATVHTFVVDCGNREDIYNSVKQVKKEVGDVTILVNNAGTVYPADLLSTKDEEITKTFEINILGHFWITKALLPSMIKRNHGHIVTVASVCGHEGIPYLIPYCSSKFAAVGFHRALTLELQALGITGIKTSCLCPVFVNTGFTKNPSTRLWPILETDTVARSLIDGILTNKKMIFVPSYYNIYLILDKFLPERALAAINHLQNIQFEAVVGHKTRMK
Text: (§1) To understand ligand binding, we tested several approaches such as surface plasmon resonance and isothermal calorimetry. […] We next turned to thermal shift assays (TSA) for comparing ligand binding affinities. TSA measures the changes in the thermal denaturation temperature of a protein under different conditions such as the presence compound, changes in buffer conditions, or sequence mutations. There are various readouts including intrinsic fluorescence or light scattering signals. We chose the static light scattering methods to detect the temperatures at which our proteins start to aggregate (Tagg), which are more suitable for membrane proteins that require detergent micelles for stability.
(§2) TSA studies were run on the UNit instrument (Unchained Labs, CA, USA). […] The data was processed using the UNcle software (Unchained Labs, CA, USA), and temperatures at which the protein started aggregation were recorded as Tagg.

dog WT HSD17B13 = molecular target: T3, dog WT HSD17B13 (Canis lupus familiaris, UniProt A0A8C0PP93); assay: Thermal shift assay (static light scattering, Tagg), dog WT HSD17B13; assay type: binding; settings: Fig. 6d; 500 μM NAD+
T3 construct: HSD17B13 (AA1-300, XP_038300006.1); made in house; host or cells: Sf9 (baculovirus)
T3 sequence (A0A8C0PP93 1-300): T2 sequence (A0A8C0PP93 1-300 G177E/V178G/T205A/I293V) with E177G, G178V, A205T, V293I
Text: as §1, §2

human HSD17B11 = molecular target: T4, human HSD17B11 (Homo sapiens, UniProt Q8NBQ5); assay: Thermal shift assay (static light scattering, Tagg), human HSD17B11; assay type: binding; settings: Fig. 6d, 500 μM NAD+
T4 construct: human HSD17B11 (residues 2-300, NP_057329.3); 10x His (N); TEV protease site (N); made in house; host or cells: Sf9 (baculovirus)
T4 sequence (Q8NBQ5 2-300): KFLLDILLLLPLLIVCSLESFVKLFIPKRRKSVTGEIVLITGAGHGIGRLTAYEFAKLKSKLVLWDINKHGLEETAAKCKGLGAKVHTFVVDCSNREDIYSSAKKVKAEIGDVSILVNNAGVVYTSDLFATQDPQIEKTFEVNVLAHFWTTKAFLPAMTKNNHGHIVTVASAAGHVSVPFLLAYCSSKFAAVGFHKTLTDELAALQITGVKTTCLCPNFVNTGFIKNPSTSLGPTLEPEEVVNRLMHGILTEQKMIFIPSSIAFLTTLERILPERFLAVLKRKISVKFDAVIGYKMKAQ
Text: Because of the low enzymatic activities of dog wild-type HSD17B13 (Fig. 6a) and HSD17B11 with β-estradiol, it was difficult to measure compound inhibition of these proteins in a biochemical assay and we instead utilized direct binding methods to compare compounds interaction with different proteins. To understand ligand binding, we tested several approaches such as surface plasmon resonance and isothermal calorimetry. Like many membrane/detergent-associated proteins, however, these methods were not amenable for HSD17B13. We next turned to thermal shift assays (TSA) for comparing ligand binding affinities. TSA measures the changes in the thermal denaturation temperature of a protein under different conditions such as the presence compound, changes in buffer conditions, or sequence mutations. There are various readouts including intrinsic fluorescence or light scattering signals. We chose the static light scattering methods to detect the temperatures at which our proteins start to aggregate (Tagg), which are more suitable for membrane proteins that require detergent micelles for stability. Given that in theory[51] and in practice Tagg continues to increase with concentration of ligands far above their IC50s, we used high cofactor and inhibitor concentrations in the TSA experiments to maximize the ligand binding signal.
TSA studies were run on the UNit instrument (Unchained Labs, CA, USA). Experiments were run in either 25 mM sodium phosphate pH 7, 150 mM NaCl, 10% glycerol, 1 mM TCEP, 0.05% DDM, + different cofactors (NAD^+, NADH, NADP, NADPH; MilliporeSigma) or 25 mM HEPES pH 7.2, 300 mM NaCl, 0.5 mM TCEP, 0.05% DDM, 10% glycerol, ±500 µM NAD^+, and ±100 µM compound 1 (from 2 mM DMSO stock) or DMSO or 50 mM Hepes pH 7.5, 300 mM NaCl, 0.5 mM TCEP, 0.05% DDM, 500 µM NAD^+, ± 50 µM compounds (from 2 mM stock) or DMSO. Protein aggregation was measured by static light scattering at 266 and 473 nm with a 1 °C/sec ramp rate from 20-80 °C. The data was processed using the UNcle software (Unchained Labs, CA, USA), and temperatures at which the protein started aggregation were recorded as Tagg. Reported Tagg and analysis were based on measurements at 266 nm unless otherwise indicated. The protein concentration used was 10.4 μM.

## O=C(NC[C@]1(O)CC[C@H](COc2ccccc2F)CC1)c1ccc(O)c(F)c1 [Compound 1]
Human HSD17B13
  IC50: 250 ± 90 nM
[1]
  binding in TSA: bound compound 1 strongly
[1]; 50 µM compound
  Tagg: 46.8 ± 2.2 °C
Dog WT HSD17B13
  stabilization in TSA: Neither 1 nor 2 stabilized dog WT HSD17B13 significantly
Human HSD17B11
  effect on protein stability in TSA: neither 1 nor 2 showed an effect on protein stability
Human HSD17B11; 50 µM compound
  Tagg: 37.65 °C and 35.79 °C and 38.54 °C and 39 °C and 39.99 °C and 38.79 °C and 39.64 °C and 38.95 °C
